Assay results reported in patent publication US20180244611A1, “Modulators of the Cystic Fibrosis Transmembrane Conductance Regulator Protein and Methods of Use” (AbbVie S.à.r.l., priority 2017, published 2018).
pEC50: −log10 of the molar value.

Experiments:
[1] = biological target: T1, F508delCFTR (Homo sapiens, UniProt P13569, DEL508-508); experiment: Cell Surface Expression-Horse Radish Peroxidase (CSE-HRP) assay, test compound with co-corrector; assay type: cell-based; conditions: for pEC50: CSE-HRP assay, test compound with 2 μM co-corrector; for Maximum % activity (with co-corrector): maximum at any tested concentration, normalized to on-plate positive control, with 2 μM co-corrector;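 for Maximum % activity (with co-corrector): percent of 2 µM positive control corrector over DMSO; co-corrector is that same compound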
T1 construct: expressed in transfected cells; host or cells: CFBE41o- human lung-derived epithelial cells (CFBE41o-F508delCFTR-HRP), doxycycline-inducible
T1 sequence (P13569 with tags, fused parts or gaps DEL508-508): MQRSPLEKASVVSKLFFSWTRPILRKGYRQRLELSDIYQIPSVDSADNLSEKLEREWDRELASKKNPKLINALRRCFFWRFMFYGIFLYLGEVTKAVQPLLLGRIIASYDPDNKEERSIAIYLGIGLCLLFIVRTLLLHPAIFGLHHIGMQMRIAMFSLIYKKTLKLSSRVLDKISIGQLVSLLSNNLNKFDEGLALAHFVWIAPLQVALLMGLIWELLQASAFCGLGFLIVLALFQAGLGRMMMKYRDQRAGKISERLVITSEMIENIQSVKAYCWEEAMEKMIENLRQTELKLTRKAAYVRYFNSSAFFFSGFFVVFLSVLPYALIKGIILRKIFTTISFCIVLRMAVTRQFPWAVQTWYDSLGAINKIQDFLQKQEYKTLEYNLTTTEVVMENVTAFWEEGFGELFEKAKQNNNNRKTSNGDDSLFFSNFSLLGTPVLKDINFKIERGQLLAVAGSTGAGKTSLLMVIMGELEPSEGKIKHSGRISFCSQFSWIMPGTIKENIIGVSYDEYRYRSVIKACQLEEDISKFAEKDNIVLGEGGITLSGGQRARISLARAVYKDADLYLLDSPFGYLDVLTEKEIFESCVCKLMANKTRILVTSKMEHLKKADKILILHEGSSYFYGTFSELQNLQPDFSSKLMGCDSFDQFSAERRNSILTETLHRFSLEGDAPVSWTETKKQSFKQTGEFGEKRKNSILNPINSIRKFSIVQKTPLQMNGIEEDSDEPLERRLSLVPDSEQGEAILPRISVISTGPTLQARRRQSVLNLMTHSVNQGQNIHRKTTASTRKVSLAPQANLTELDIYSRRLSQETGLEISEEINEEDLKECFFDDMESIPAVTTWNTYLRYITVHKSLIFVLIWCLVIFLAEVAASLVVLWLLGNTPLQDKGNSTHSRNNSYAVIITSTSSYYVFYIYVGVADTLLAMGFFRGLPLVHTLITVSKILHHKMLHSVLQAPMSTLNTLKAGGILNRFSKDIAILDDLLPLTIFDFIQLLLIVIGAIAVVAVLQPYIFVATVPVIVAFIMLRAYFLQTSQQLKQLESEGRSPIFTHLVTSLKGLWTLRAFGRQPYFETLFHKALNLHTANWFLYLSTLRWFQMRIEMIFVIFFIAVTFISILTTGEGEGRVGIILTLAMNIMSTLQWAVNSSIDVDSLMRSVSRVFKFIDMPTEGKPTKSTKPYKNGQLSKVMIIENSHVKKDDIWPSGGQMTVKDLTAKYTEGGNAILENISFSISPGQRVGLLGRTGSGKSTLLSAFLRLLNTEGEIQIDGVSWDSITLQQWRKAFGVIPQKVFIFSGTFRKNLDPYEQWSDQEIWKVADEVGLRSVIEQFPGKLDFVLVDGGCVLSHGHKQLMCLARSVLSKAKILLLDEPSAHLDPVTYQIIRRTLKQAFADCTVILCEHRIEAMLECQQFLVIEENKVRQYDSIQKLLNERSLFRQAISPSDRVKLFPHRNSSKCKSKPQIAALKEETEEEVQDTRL
Method in brief: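 Surface-expression read-out: luminol luminescence from an HRP tag in the fourth exofacial loop of F508delCFTR, in doxycycline-induced (0.5 μg/mL, 72 h) CFBE41o- cells. Compound plus 2 μM co-corrector added for 18-24 h at 33° C., 8-point 3-fold series up to 20 μM. EC50 from a sigmoidal fit with variable Hill slope, normalised to positive control, triplicate plates.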

[2] = biological target: T1, F508delCFTR; experiment: Cell Surface Expression-Horse Radish Peroxidase (CSE-HRP) assay, test compound without co-corrector; assay type: cell-based; conditions: for pEC50: CSE-HRP assay, test compound without co-corrector; for Emax: maximum at any tested concentration, normalized to on-plate positive control, without co-corrector;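 for Emax: percent of on-plate 2 µM positive control corrector response over DMSO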
Method in brief: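 Compound without co-corrector was tested at eight 3-fold concentrations, top 20 μM, for 18-24 h at 33° C on doxycycline-induced (0.5 μg/mL, 72 h) CFBE41o- F508delCFTR-HRP cells. After DPBS washes, luminol luminescence gave % activity relative to on-plate positive control minus DMSO; EC50 came from triplicate-plate sigmoidal fitting.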

## COc1ccc(-c2ccc(C3CC3)nc2)c2c1C(C(=O)NS(=O)(=O)c1cccc3ccccc13)CCC2 (stereo not shown) [III-165]
[1]
  pEC50: > 5.52
  Maximum % activity (with co-corrector): ++ (≥150 and <350)
[2]
  pEC50: 5.00 to 5.52
  Emax: 50 to 150%

## COc1ccc(-c2ccncc2)c2c1C(C(=O)NS(=O)(=O)c1cccc3ccccc13)CCC2 (stereo not shown) [III-166]
[1]
  pEC50: > 5.52
  Maximum % activity (with co-corrector): ++ (≥150 and <350)
[2]
  pEC50: > 5.52
  Emax: 50 to 150%

## COc1ccc(-c2ccc(C)nc2)c2c1C(C(=O)NS(=O)(=O)c1cccc3ccccc13)CCC2 (stereo not shown) [III-167]
[1]
  pEC50: > 5.52
  Maximum % activity (with co-corrector): ++ (≥150 and <350)
[2]
  pEC50: 5.00 to 5.52
  Emax: < 50%

## COc1ccc(-c2cncnc2)c2c1C(C(=O)NS(=O)(=O)c1cccc3ncccc13)CC2 (stereo not shown) [III-168]
[1]
  pEC50: 5.00 to 5.52
  Maximum % activity (with co-corrector): +++ (≥350)
[2]
  pEC50: 5.00 to 5.52
  Emax: 50 to 150%

## COc1ccc(C2=CCOCC2)c2c1C(C(=O)NS(=O)(=O)c1cccc3ncccc13)CC2 (stereo not shown) [III-169]
[1]
  pEC50: > 5.52
  Maximum % activity (with co-corrector): +++ (≥350)
[2]
  pEC50: 5.00 to 5.52
  Emax: ≥ 150%

## COc1ccc(-c2ccc(C)cc2)c2c1C(C(=O)NS(=O)(=O)c1cccc3ccccc13)CCC2 (stereo not shown) [III-170]
[1]
  pEC50: > 5.52
  Maximum % activity (with co-corrector): +++ (≥350)
[2]
  pEC50: > 5.52
  Emax: 50 to 150%

## COc1ccc(-c2ccc(C(F)(F)F)nc2)c2c1C(C(=O)NS(=O)(=O)c1cccc3ccccc13)CCC2 (stereo not shown) [III-171]
[1]
  pEC50: 5.00 to 5.52
  Maximum % activity (with co-corrector): +++ (≥350)
[2]
  pEC50: 5.00 to 5.52
  Emax: 50 to 150%

## CCC1(C(=O)NS(=O)(=O)c2cccc(N3CCOCC3)c2C)CCc2c(Cl)cccc21 (stereo not shown) [III-172]
[1]
  pEC50: > 5.52
  Maximum % activity (with co-corrector): ++ (≥150 and <350)
[2]
  pEC50: 5.00 to 5.52
  Emax: < 50%

## CCC1(C(=O)NS(=O)(=O)c2cccc(N(C)CCOC)c2C)CCc2c(Cl)cccc21 (stereo not shown) [III-173]
[1]
  pEC50: 5.00 to 5.52
  Maximum % activity (with co-corrector): +++ (≥350)
[2]
  pEC50: 5.00 to 5.52
  Emax: 50 to 150%

## COc1ccc(N2CCCC2)c2c1CCCC2C(=O)NS(=O)(=O)c1cccc2ccccc12 (stereo not shown) [III-174]
[1]
  pEC50: ≤ 5.00
  Maximum % activity (with co-corrector): + (<150)
[2]
  pEC50: ≤ 5.00
  Emax: < 50%

## COc1ccc2c(c1OC)CC2C(=O)NS(=O)(=O)c1ccccc1C (stereo not shown) [III-175]
[1]
  pEC50: ≤ 5.00
  Maximum % activity (with co-corrector): + (<150)
[2]
  pEC50: ≤ 5.00
  Emax: < 50%

## Cc1ccccc1S(=O)(=O)NC(=O)C1Cc2ccccc21 (stereo not shown) [III-176]
[1]
  pEC50: ≤ 5.00
  Maximum % activity (with co-corrector): + (<150)
[2]
  pEC50: ≤ 5.00
  Emax: < 50%

## COc1ccc2c(c1OC)CC2C(=O)NS(=O)(=O)c1cccc2ccccc12 (stereo not shown) [III-177]
[1]
  pEC50: 5.00 to 5.52
  Maximum % activity (with co-corrector): ++ (≥150 and <350)
[2]
  pEC50: ≤ 5.00
  Emax: < 50%

## COc1ccc2c(n1)CCC2C(=O)NS(=O)(=O)c1cccc2ccccc12 (stereo not shown) [III-178]
[1]
  pEC50: 5.00 to 5.52
  Maximum % activity (with co-corrector): ++ (≥150 and <350)
[2]
  pEC50: 5.00 to 5.52
  Emax: < 50%

## CCC1(C(=O)NS(=O)(=O)c2cccc(Cl)c2C(=O)O)CCc2c(Cl)cccc21 (stereo not shown) [III-179]
[1]
  pEC50: ≤ 5.00
  Maximum % activity (with co-corrector): + (<150)
[2]
  pEC50: ≤ 5.00
  Emax: < 50%

## COc1ccc(Br)c2c1C(C(=O)NS(=O)(=O)c1cccc3c(C(=O)O)cccc13)CC2 (stereo not shown) [III-181]
[1]
  pEC50: 5.00 to 5.52
  Maximum % activity (with co-corrector): ++ (≥150 and <350)
[2]
  pEC50: ≤ 5.00
  Emax: < 50%

## COc1cccc2c1C(C(=O)NS(=O)(=O)c1cccc3ccccc13)CC2 (stereo not shown) [III-182]
[1]
  pEC50: > 5.52
  Maximum % activity (with co-corrector): ++ (≥150 and <350)
[2]
  pEC50: > 5.52
  Emax: 50 to 150%

## COc1ccc(C(=O)O)c2c1C(C(=O)NS(=O)(=O)c1cccc3ccccc13)CC2 (stereo not shown) [III-183]
[1]
  pEC50: 5.00 to 5.52
  Maximum % activity (with co-corrector): ++ (≥150 and <350)
[2]
  pEC50: ≤ 5.00
  Emax: < 50%

## COC(=O)c1ccc(OC)c2c1CCC2C(=O)NS(=O)(=O)c1cccc2ccccc12 (stereo not shown) [III-184]
[1]
  Maximum % activity (with co-corrector): ++ (≥150 and <350)
[2]
  Emax: 50 to 150%

## COc1ccc(CO)c2c1C(C(=O)NS(=O)(=O)c1cccc3ccccc13)CC2 (stereo not shown) [III-185]
[1]
  pEC50: 5.00 to 5.52
  Maximum % activity (with co-corrector): ++ (≥150 and <350)
[2]
  pEC50: 5.00 to 5.52
  Emax: < 50%

## CNC(=O)c1ccc(OC)c2c1CCC2C(=O)NS(=O)(=O)c1cccc2ccccc12 (stereo not shown) [III-186]
[1]
  pEC50: ≤ 5.00
  Maximum % activity (with co-corrector): + (<150)
[2]
  pEC50: ≤ 5.00
  Emax: < 50%
